# Laboratory results from US7642253B2, “Histone deacetylase inhibitors” (Takeda San Diego, Inc., priority 2005, dated 2010).
# Target: HDAC2 (Homo sapiens, UniProt Q92769)
# Test: HDAC2 fluorescence inhibition assay (tBoc-Lys(Ac)-AMC)
# Chain of HDAC2 (Q92769 with tags, fused parts or gaps): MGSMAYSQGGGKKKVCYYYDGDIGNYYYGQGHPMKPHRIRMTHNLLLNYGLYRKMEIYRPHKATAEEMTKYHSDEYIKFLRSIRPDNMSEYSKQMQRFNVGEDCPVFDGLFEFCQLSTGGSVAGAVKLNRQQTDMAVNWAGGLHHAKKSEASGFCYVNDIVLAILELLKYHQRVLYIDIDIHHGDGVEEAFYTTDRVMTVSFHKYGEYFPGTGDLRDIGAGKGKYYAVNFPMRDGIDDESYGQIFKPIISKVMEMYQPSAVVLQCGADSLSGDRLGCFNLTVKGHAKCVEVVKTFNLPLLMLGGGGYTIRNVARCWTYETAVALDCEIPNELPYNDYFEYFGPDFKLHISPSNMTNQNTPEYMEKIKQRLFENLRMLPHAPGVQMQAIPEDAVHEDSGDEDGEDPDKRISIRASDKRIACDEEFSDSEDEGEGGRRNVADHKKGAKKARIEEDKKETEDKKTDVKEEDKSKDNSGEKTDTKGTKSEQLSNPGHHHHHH
row,Compound,IC50 [nM]
1,"NC1=NS(=O)(=O)c2ccccc2N1Cc1ccc(C(=O)Nc2ccccc2N)cc1 [Example 2, 4-(3-Amino-1,1-dioxo-1H-1λ^6-benzo[1,2,4]thiadiazin-4-ylmethyl)-N-(2-amino-phenyl)-benzamide]",100 to 500
2,"Nc1ccccc1NC(=O)c1ccc(CN2C(=O)NCc3ccccc32)cc1 [Example 3, N-(2-aminophenyl)-4-((2-oxo-3,4-dihydroquinazolin-1(2H),-yl)methyl)benzamide]",100 to 500
3,"CSC1=Nc2ccccc2S(=O)(=O)N1Cc1ccc(C(=O)Nc2ccccc2N)cc1 [Example 5, N-(2-Amino-phenyl)-4-(3-methylsulfanyl-1,1-dioxo-1H-1λ^6-benzo[1,2,4]thiadiazin-2-ylmethyl)-benzamide]",100 to 500
4,"CNC1=Nc2ccccc2S(=O)(=O)N1Cc1ccc(C(=O)Nc2ccccc2N)cc1 [Example 6, N-(2-Amino-phenyl)-4-(3-methylamino-1,1-dioxo-1H-1λ^6-benzo[1,2,4]thiadiazin-2-ylmethyl)-benzamide]",100 to 500
5,"NC1=Nc2ccccc2S(=O)(=O)N1Cc1ccc(C(=O)Nc2ccccc2N)cc1 [Example 7, 4-(3-Amino-1,1-dioxo-1H-1λ^6-benzo[1,2,4]thiadiazin-2-ylmethyl)-N-(2-amino-phenyl)-benzamide]",50 to 100
6,"Nc1ccccc1NC(=O)c1ccc(Cn2c(=O)ncc3ccccc32)cc1 [Example 8, N-(2-aminophenyl)-4-((2-oxoquinazolin-1(2H),-yl)methyl)benzamide]",100 to 500
7,"CCSC1=Nc2ccccc2S(=O)(=O)N1Cc1ccc(C(=O)Nc2ccccc2N)cc1 [Example 9, N-(2-Amino-phenyl)-4-(3-ethylsulfanyl-1,1-dioxo-1H-1λ^6-benzo[1,2,4]thiadiazin-2-ylmethyl)-benzamide]",100 to 500
8,"Nc1ccccc1NC(=O)c1ccc(CN2C(=S)Nc3cc(C(F)(F)F)ccc3S2(=O)=O)cc1 [Example 13, N-(2-Amino-phenyl)-4-(1,1-dioxo-3-thioxo-6-trifluoromethyl-3,4-dihydro-1H-1λ^6-benzo[1,2,4]thiadiazin-2-ylmethyl)-benzamide]",50 to 100
9,"COc1ccc2c(c1)N=C(SC)N(Cc1ccc(C(=O)Nc3ccccc3N)cc1)S2(=O)=O [Example 14, N-(2-Amino-phenyl)-4-(6-methoxy-3-methylsulfanyl-1,1-dioxo-1H-1λ6-benzo[1,2,4]thiadiazin-2-ylmethyl)-benzamide]",50 to 100
10,"CSC1=Nc2cc(C(F)(F)F)ccc2S(=O)(=O)N1Cc1ccc(C(=O)Nc2ccccc2N)cc1 [Example 16, N-(2-Amino-phenyl)-4-(3-methylsulfanyl-1,1-dioxo-6-trifluoromethyl-1H-1λ6-benzo[1,2,4]thiadiazin-2-ylmethyl)-benzamide]",> 500
11,"Nc1ccccc1NC(=O)c1ccc(CN2C(=O)Nc3cc(F)ccc3S2(=O)=O)cc1 [Example 17, N-(2-Amino-phenyl)-4-(6-fluoro-1,1,3-trioxo-3,4-dihydro-1H-1λ^6-benzo[1,2,4]thiadiazin-2-ylmethyl)-benzamide]",100 to 500
12,"Nc1ccccc1NC(=O)c1ccc(CN2C(=O)Nc3ccccc3S2(=O)=O)nc1 [Example 24, N-(2-Amino-phenyl)-6-(1,1,3-trioxo-3,4-dihydro-1H-1λ^6-benzo[1,2,4]thiadiazin-2-ylmethyl)-nicotinamide]",50 to 100
13,"Nc1ccccc1NC(=O)c1ccc(CN2C(=O)Nc3ccccc3S2(=O)=O)c(F)c1 [Example 25, N-(2-Amino-phenyl)-3-fluoro-4-(1,1,3-trioxo-3,4-dihydro-1H-1λ^6-benzo[1,2,4]thiadiazin-2-ylmethyl)-benzamide]",< 50
14,"Nc1ccccc1NC(=O)c1ccc(CN2C(=O)Nc3ccc(-c4ccsc4)cc3S2(=O)=O)cc1 [Example 26, N-(2-Amino-phenyl)-4-(1,1,3-trioxo-7-thiophen-3-yl-3,4-dihydro-1H-1λ^6-benzo[1,2,4]thiadiazin-2-ylmethyl)-benzamide]",< 50
15,"Nc1ccccc1NC(=O)c1ccc(CN2C(=O)Nc3ccc(-c4ccncc4)cc3S2(=O)=O)cc1 [Example 27, N-(2-Amino-phenyl)-4-(1,1,3-trioxo-7-pyridin-4-yl-3,4-dihydro-1H-1λ^6-benzo[1,2,4]thiadiazin-2-ylmethyl)-benzamide]",< 50
16,"Nc1ccccc1NC(=O)c1ccc(CN2C(=O)Nc3ccc(-c4cncnc4)cc3S2(=O)=O)cc1 [Example 28, N-(2-Amino-phenyl)-4-(1,1,3-trioxo-7-pyrimidin-5-yl-3,4-dihydro-1H-1λ^6-benzo[1,2,4]thiadiazin-2-ylmethyl)-benzamide]",< 50
17,"Nc1ccccc1NC(=O)c1ccc(CN2C(=O)Nc3ccc(-c4cccnc4)cc3S2(=O)=O)cc1 [Example 29, N-(2-Amino-phenyl)-4-(1,1,3-trioxo-7-pyridin-3-yl-3,4-dihydro-1H-1λ^6-benzo[1,2,4]thiadiazin-2-ylmethyl)-benzamide]",< 50
18,"Nc1ccccc1NC(=O)c1ccc(CN2C(=O)Nc3ccc(-c4ccco4)cc3S2(=O)=O)cc1 [Example 30, N-(2-Amino-phenyl)-4-(7-furan-2-yl-1,1,3-trioxo-3,4-dihydro-1H-1λ^6-benzo[1,2,4]thiadiazin-2-ylmethyl)-benzamide]",< 50
19,"Nc1ccccc1NC(=O)c1ccc(CN2C(=O)Nc3ccc(-c4cccs4)cc3S2(=O)=O)cc1 [Example 31, N-(2-Amino-phenyl)-4-(1,1,3-trioxo-7-thiophen-2-yl-3,4-dihydro-1H-1λ^6-benzo[1,2,4]thiadiazin-2-ylmethyl)-benzamide]",< 50
20,Nc1ccccc1NC(=O)c1ccc(CN2C(=O)Nc3ccc(-c4ccoc4)cc3S2(=O)=O)cc1 [Example 32],< 50
21,"CN1Cc2ccccc2N(Cc2ccc(C(=O)Nc3ccccc3N)cc2)C1=S [Example 33, N-(2-Amino-phenyl)-4-(3-methyl-2-thioxo-3,4-dihydro-2H-quinazolin-1-ylmethyl)-benzamide]",< 50
22,"Nc1ccccc1NC(=O)c1ccc(CN2C(=O)Nc3ccccc3S2(=O)=O)s1 [Example 34, 5-(1,1,3-Trioxo-3,4-dihydro-1H-1λ^6-benzo[1,2,4]thiadiazin-2-ylmethyl)-thiophene-2-carboxylic acid(2-amino-phenyl)-amide]",50 to 100
23,"Nc1ccccc1NC(=O)c1ccc(CN2C(=O)Nc3ccncc3S2(=O)=O)cc1 [Example 35, N-(2-Amino-phenyl)-4-(1,1,3-trioxo-3,4-dihydro-1H-1λ^6-pyrido[4,3-e][1,2,4]thiadiazin-2-ylmethyl)-benzamide]",> 500

# Results, then the compound that gave them:
row,IC50 [nM],Compound
1,< 50,"Nc1ccccc1NC(=O)c1ccc(CN2C(=O)Nc3ccccc3S2(=O)=O)cc1 [Example 1, N-(2-Amino-phenyl)-4-(1,1,3-trioxo-3,4-dihydro-1H-1λ^6-benzo[1,2,4]thiadiazin-2-ylmethyl)-benzamide]"
2,< 50,"Nc1ccccc1NC(=O)c1ccc(CN2C(=S)Nc3ccccc3S2(=O)=O)cc1 [Example 4, N-(2-Amino-phenyl)-4-(1,1-dioxo-3-thioxo-3,4-dihydro-1H-1λ^6-benzo[1,2,4]thiadiazin-2-ylmethyl)-benzamide]"
3,< 50,"COc1ccc2c(c1)NC(=O)N(Cc1ccc(C(=O)Nc3ccccc3N)cc1)S2(=O)=O [Example 10, N-(2-Amino-phenyl)-4-(6-methoxy-1,1,3-trioxo-3,4-dihydro-1H-1λ^6-benzo[1,2,4]thiadiazin-2-ylmethyl)-benzamide]"
4,< 50,"Nc1ccccc1NC(=O)c1ccc(CN2C(=O)Nc3cc(C(F)(F)F)ccc3S2(=O)=O)cc1 [Example 11, N-(2-Amino-phenyl)-4-(1,1,3-trioxo-6-trifluoromethyl-3,4-dihydro-1H-1λ^6-benzo[1,2,4]thiadiazin-2-ylmethyl)-benzamide]"
5,< 50,"COc1ccc2c(c1)NC(=S)N(Cc1ccc(C(=O)Nc3ccccc3N)cc1)S2(=O)=O [Example 12, N-(2-Amino-phenyl)-4-(6-methoxy-1,1-dioxo-3-thioxo-3,4-dihydro-1H-1λ^6-benzo[1,2,4]thiadiazin-2-ylmethyl)-benzamide]"
6,< 50,"CN1Cc2ccccc2N(Cc2ccc(C(=O)Nc3ccccc3N)cc2)C1=O [Example 15, N-(2-Amino-phenyl)-4-(3-methyl-2-oxo-3,4-dihydro-2H-quinazolin-1-ylmethyl)-benzamide]"
7,< 50,"Nc1ccccc1NC(=O)c1ccc(CN2C(=S)Nc3cc(F)ccc3S2(=O)=O)cc1 [Example 18, N-(2-Amino-phenyl)-4-(6-fluoro-1,1-dioxo-3-thioxo-3,4-dihydro-1H-1λ^6-benzo[1,2,4]thiadiazin-2-ylmethyl)-benzamide]"
8,< 50,"COc1ccc2c(c1)NC(=S)N(Cc1ccc(C(=O)Nc3cc(F)ccc3N)cc1)S2(=O)=O [Example 19, N-(2-Amino-5-fluoro-phenyl)-4-(6-methoxy-1,1-dioxo-3-thioxo-3,4-dihydro-1H-1λ^6-benzo[1,2,4]thiadiazin-2-ylmethyl)-benzamide]"
9,< 50,"COc1ccc2c(c1)NC(=O)N(Cc1ccc(C(=O)Nc3cc(F)ccc3N)cc1)S2(=O)=O [Example 20, N-(2-Amino-5-fluoro-phenyl)-4-(6-methoxy-1,1,3-trioxo-3,4-dihydro-1H-1λ6-benzo[1,2,4]thiadiazin-2-ylmethyl)-benzamide]"
10,< 50,"Nc1ccccc1NC(=O)c1ccc(CN2C(=O)Nc3ncc(Cl)cc3S2(=O)=O)cc1 [Example 21, N-(2-Amino-phenyl)-4-(7-chloro-1,1,3-trioxo-3,4-dihydro-1H-1λ^6-pyrido[2,3-e][1,2,4]thiadiazin-2-ylmethyl)-benzamide]"
11,< 50,"Nc1ccc(F)cc1NC(=O)c1ccc(CN2C(=O)Nc3ccccc3S2(=O)=O)cc1 [Example 22, N-(2-Amino-5-fluoro-phenyl)-4-(1,1,3-trioxo-3,4-dihydro-1H-1λ^6-benzo[1,2,4]thiadiazin-2-ylmethyl)-benzamide]"
12,< 50,"Nc1ccccc1NC(=O)c1ccc(CN2C(=O)Nc3ccc(Br)cc3S2(=O)=O)cc1 [Example 23, N-(2-Amino-phenyl)-4-(7-bromo-1,1,3-trioxo-3,4-dihydro-1H-1λ^6-benzo[1,2,4]thiadiazin-2-ylmethyl)-benzamide]"
